# Test results taken from patent US6339102B1, “Method and composition for treating and preventing retinal damage” (The United States of America as represented by the …, priority 1999, dated 2002).
# Where two headings read alike, the source gives them in different places.
# Assays:
# [1] = system: dissociated retinal cells; assay: MTT viability of dissociated retinal cells exposed to NaCN and 2-deoxyglucose (simulated ischemia); format: cell-based, rabbit; details: NaCN and 2-DG giving approximately 60% toxicity, p<0.004
# [2] = system: cultured neurons; assay: MTT neuroprotection assay in cultured neurons after H2O2 oxidative insult; format: cell-based; details: for % Neuroprotection: 4 h pre-treatment, 50 μM H2O2 30 min, MTT after 24 h, mean±SEM
# Procedure: In a separate series of experiments, cultured neurons were pre-treated with four different concentrations of DHL with or without 10 mM SPBN for four hours. At the conclusion of the preincubation period, an oxidative insult was applied by adding 50 μM of hydrogen peroxide (H2O2) for an additional 30 min. Medium containing the H2O2 and antioxidants was then removed and Minimum Essential Medium (MEM) was added to the wells for 24 hours. Neuroprotection was then assessed by conducting the calorimetric MTT assay. One way ANOVA with significance of differences between means assessed by Tukey-Kramer Multiple Comparisons test.
# Data are depicted as means±SEM (n=8). Significance was determined by one way ANOVA, and differences between the means was assessed by the Tukey-Kramer test. (See table 1).
# [3] = system: traumatic brain injury; details: administered either 15 minutes prior or 30 minutes post injury; preliminary studies; cited from earlier work
# [4] = system: focal ischemia; details: rat; temporary model: given 3 hours or even 5 hours after start of recirculation; cited from earlier work
# [5] = system: ferrous chloride; details: mice, intracerebral lethal injection of ferrous chloride; cited from earlier work
# [6] = cited from earlier work
# [7] = in vivo; cited from earlier work
# [8] = system: focal ischemia; details: initiation of treatment delayed as long as 12 hours; cited from earlier work
# [9] = system: cortical contusion; details: rat; cited from earlier work
# [10] = Aldrich catalog description; cited from earlier work
# [11] = system: striatal lesions; details: 100 mg/kg i.p. 30 min prior and q 8 hours for 48 hours after insult; or 300 mg/kg ip repeated; cited from earlier work
# [12] = system: retinal ganglion cells; details: 500 ng by intraocular injection; Klocker et al.; cited from earlier work
# [13] = in vivo; cited from earlier work; remark: listed apart in the source
# [14] = system: ischemia-perfusion injury; details: rat; cited from earlier work
# [15] = system: ischemia-perfusion injury; details: gerbil; cited from earlier work
# [16] = system: lesions of striatum; details: rats; cited from earlier work
compound,measurement,setting,value
"O=C(O)CCCC[C@@H](S)CCS (racemic) [DHL, dihydrolipoic acid]",protection against damage from NaCN and 2-DG (maximum effect),[1]; DHL 0.3 millimolar co-administered,approximately 60%
same,Emax,"[1]; Oryctolagus cuniculus, DHL 0.1 millimolar co-administered, read-out: protection against damage from NaCN and 2-DG (maximum effect)",~60%
same,% Neuroprotection,[2]; DHL 3 μM,1.31 ± 5.23%
same,% Neuroprotection,[2]; DHL 10 μM,−3.68 ± 5.14%
same,% Neuroprotection,[2]; DHL 30 μM,7.04 ± 7.38%
same,% Neuroprotection,[2]; DHL 100 μM,28.48 ± 5.83%
CC(C)(C)[N+]([O-])=Cc1ccc(S(=O)(=O)[O-])cc1S(=O)(=O)[O-].[Na+].[Na+] [NXY-059],volume of necrosis after traumatic brain injury,[3],effective in decreasing volume of necrosis
same,efficacy in temporary and permanent focal ischemia,[4],effective
"CC(C)(C)[N+]([O-])=Cc1ccccc1 [PBN, α-Phenyl-N-tert-butylnitrone]",seizures and time to death after ferrous chloride,[5],minimized seizures and delayed time to death
same,toxicity,[6]; in high concentrations,somewhat toxic
same,toxicity,[6]; very high doses,toxicity is a problem
same,blood brain barrier crossing,[7],crosses the blood brain barrier
same,neuroprotection in rat focal ischemia model,[8],neuroprotective
same,accumulation of lactate following cortical contusion,[9],attenuate
"CC(C)(C)[N+]([O-])=Cc1ccccc1S(=O)(=O)O [SPBN, N-tert-Butyl-α-[2-sulfophenyl]-nitrone]",water solubility,[10],water-soluble
same,effect of SPBN on the neuroprotective efficacy of DHL,"[2]; 10 mM SPBN, at three of the four DHL concentrations tested",significantly increased
same,protection against striatal toxin lesions (lesion volume),[11],protective
same,retinal ganglion cells rescued after axotomy,[12],27%
"O=C(O)CCCCC1CCSS1 (stereo not drawn) [αLA, Alpha-lipoic acid]",clinical safety,[13],clinically safe
same,neuroprotection against ischemia-perfusion injury,[14],neuro-protective
same,neuroprotection against ischemia-perfusion injury,[15],neuro-protective
same,efficacy against NMDA and malonic acid lesions of striatum,[16],effective
